Columns and labels:
[1] = test system: human CD34+ hematopoietic stem cells (HSC); assay: Hematopoietic stem cell expansion, CD34+ cells by flow cytometry after 12-day culture; type: cell-based
Method: The ability of compounds of formula (I) to facilitate hematopoietic stem cell expansion was determined by testing 1-methyl-7-(2-methyl-4-(6-(trifluoromethyl)pyrido[3,2-d]pyrimidin-2-yl)phenyl)-6,7-dihydro-1H-pyrazolo[3,4-f][1,4]oxazepin-8(5H)-one (compound 1) and 3-methyl-5-(2-methyl-4-(6-(trifluoromethyl)quinazolin-2-yl)phenyl)-6,7-dihydropyrazolo[1,5-a]pyrazin-4(5H)-one (compound 2) as follows.
Isolated human CD34^+ hematopoietic stem cells (HSC) were obtained from AllCells (Alameda, Calif., USA). 5,000 HSC per well were cultivated in 100 μL HSC expansion media StemSpan SFEM (StemCell Technologies; Vancouver, BC, Canada) containing 1× antibiotics (Life Technologies, Carlsbad, Calif., USA), 100 ng/mL thrombopoietin, 100 ng/mL IL-6, 100 ng/mL Flt3 ligand and 100 ng/mL stem cell factor (all R&D Systems, Minneapolis, Minn., USA) in a flat bottom 96 well tissue culture plate. 100 μL of 3-fold serial diluted compound 1 or 2 (final concentration range 0.169-10,000 nM) was added at 2× of the final concentration to HSC culture and HSC culture plates were incubated in a humidity-controlled incubator at […], 5% CO2. After 12 days, the absolute viable cell counts from each well were determined. HSC were then stained in staining buffer composed of Hank's balanced salt solution with 2% fetal bovine serum and 2 mM EDTA (all Life Technologies) at 4° C. for 1 hour with anti-CD90 APC, anti-CD34 PerCP, anti-CD38 FITC, CD45RA PE-Cy7 and anti-CD133 PE antibodies (all BD Biosciences, San Jose, Calif., USA). HSC were washed with staining buffer and HSC were analyzed by multicolor phenotype flow cytometry. The percentages of CD34^+ cells were determined as percentage of total population. Absolute counts of each population were calculated from the total number of viable cells multiplied by the percentage of each population. The EC50 value for the frequency of CD34+ cells, defined as the compound concentration with half maximal response on the dose response curve, was calculated using Prism 7 (GraphPad Software, La Jolla, Calif., USA).

hAhR = molecular target: T1, hAhR (Homo sapiens, UniProt P35869); assay: AhR antagonist DRE-luciferase reporter transcriptional assay (TCDD-induced) in HEPG2 DRE-Luc cells; type: cell-based; conditions: relative IC50, HEPG2 DRE-Luc cells, 3 nM TCDD, 24 h incubation; read-out: IC50 hAhR (antagonist mode)
T1 construct: endogenous in cells; host or cells: HEPG2 cells with stably integrated Cignal XRE (DRE) luciferase reporter
T1 sequence (P35869 11-848): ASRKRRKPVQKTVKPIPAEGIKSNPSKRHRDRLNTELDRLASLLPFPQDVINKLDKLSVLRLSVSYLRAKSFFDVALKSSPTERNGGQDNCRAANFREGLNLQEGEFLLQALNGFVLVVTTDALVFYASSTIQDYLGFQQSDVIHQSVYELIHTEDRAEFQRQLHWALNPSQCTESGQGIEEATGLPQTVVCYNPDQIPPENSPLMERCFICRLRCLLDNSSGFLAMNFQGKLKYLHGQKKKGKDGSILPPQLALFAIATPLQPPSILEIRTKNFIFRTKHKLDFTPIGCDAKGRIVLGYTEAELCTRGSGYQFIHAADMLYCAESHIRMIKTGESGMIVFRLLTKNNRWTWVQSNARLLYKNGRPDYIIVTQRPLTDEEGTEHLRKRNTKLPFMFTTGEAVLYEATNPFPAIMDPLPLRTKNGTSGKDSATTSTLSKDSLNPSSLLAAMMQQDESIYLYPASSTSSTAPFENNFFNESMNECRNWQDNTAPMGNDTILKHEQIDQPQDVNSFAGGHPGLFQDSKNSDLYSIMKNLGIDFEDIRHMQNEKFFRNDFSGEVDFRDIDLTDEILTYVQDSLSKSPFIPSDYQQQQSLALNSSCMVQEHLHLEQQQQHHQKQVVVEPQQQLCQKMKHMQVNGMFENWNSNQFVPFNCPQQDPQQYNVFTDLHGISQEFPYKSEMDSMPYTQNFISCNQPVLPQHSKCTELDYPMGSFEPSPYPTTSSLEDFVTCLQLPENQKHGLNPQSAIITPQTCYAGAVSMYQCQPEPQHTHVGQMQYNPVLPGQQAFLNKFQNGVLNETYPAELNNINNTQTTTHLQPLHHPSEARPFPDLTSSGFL
Method: The ability of compounds of formula (I) to antagonize AhR was tested as follow. HEPG2 and HEPA1C1C7 cells were maintained in MEM and αMEM without nucleosides supplemented with 10% heat inactivated FBS respectively. Stably integrated DRE-luciferase cell lines were generated by transducing the both cell lines with Cignal XRE luciferase reporter (Qiagen) lentiviral particles according to the manufacturer protocol. For both cell lines, stably integrated reporter cell lines were selected for the presence of 2 μg/mL puromycin. Following selection of stably integrated cell line pools, clonal cell lines were isolated by limiting dilution in 96-well plates. […]
To determine AhR antagonist activity of compound of formula (I), the compounds were added in a semi-log dose response using a D300e Digital Dispenser (Tecan) followed normalization with vehicle (DMSO). […] Firefly luciferase activity was measured immediately following the addition of 50 μL Luciferase Assay Reagent (Promega). The percent maximal activity for each point was determined using the following equation: (RLUsample−RLUvehicle−TCDD)/(RLUvehicle+TCDD RLUvehicle−TCDD)*100. The relative IC50, defined as the compound concentration required to reduce the TCDD induced response between the top and bottom plateau of each individual dose response curve by half, for each compound was determined using Prism7 (GraphPad Software).

[2] = compound concentration 3,333 nM

Cc1cc(-c2ncc3nc(C(F)(F)F)ccc3n2)ccc1N1CCOc2cnn(C)c2C1=O [Example 001, 1-methyl-7-(2-methyl-4-(6-(trifluoromethyl)pyrido[3,2-d]pyrimidin-2-yl)phenyl)-6,7-dihydro-1H-pyrazolo[3,4-f][1,4]oxazepin-8(5H)-one]
CD34+ cell counts, fold expansion [1, 2]: 2.4 fold
frequency of CD34+ HSC, fold increase [1, 2]: 3.1 fold

Cc1cc(-c2ncc3cc(C(F)(F)F)ccc3n2)ccc1N1CCn2ncc(C)c2C1=O [Example 002, 3-methyl-5-(2-methyl-4-(6-(trifluoromethyl)quinazolin-2-yl)phenyl)-6,7-dihydropyrazolo[1,5-a]pyrazin-4(5H)-one]
frequency of CD34+ HSC, fold increase ([1]; compound concentration 1,111 nM): 3.6 fold
CD34+ cell counts, fold expansion ([1]; compound concentration 10,000 nM): 4.0 fold

Cc1cc(-c2ncc3cc(C(F)(F)F)ccc3n2)ccc1N1CCOc2cn[nH]c2C1=O [Example 033, 7-(2-methyl-4-(6-(trifluoromethyl)quinazolin-2-yl)phenyl)-6,7-dihydro-1H-pyrazolo[3,4-f][1,4]oxazepin-8(5H)-one]
IC50 (hAhR): < 200 nM

Cc1cc(-c2ncc3cc(C(F)(F)F)ccc3n2)ccc1N1CCOc2cnn(CCO)c2C1=O [Example 034, 1-(2-hydroxyethyl)-7-(2-methyl-4-(6-(trifluoromethyl)quinazolin-2-yl)phenyl)-6,7-dihydro-1H-pyrazolo[3,4-f][1,4]oxazepin-8(5H)-one]
IC50 (hAhR): 200 to 500 nM

Reference: US20210254006A1, “METHODS OF CULTURING AND/OR EXPANDING STEM CELLS AND/OR LINEAGE COMMITTED PROGENITOR CELLS USING LACTAM COMPOUNDS” (IDEAYA BIOSCIENCES, INC., priority 2018, published 2021)
